Source: the NIST ThermoML archive (doi:10.1016/j.fluid.2018.08.012)
Values joined by “and” are separate entries in the source; they are usually repeats but may differ in a detail not shown here. Equal values may be shown once.

Assay: mn = molality of the nth substance listed, in mol/kg
Details: Fluid (supercritical or subcritical phases), Vibrating tube method, m1 = 0.2392

O=S=O [sulfur dioxide] + O=C=O
Details | mass density
324.07 K, 2523.7 kPa | 45.99 kg/m3
324.07 K, 2524.8 kPa | 46.06 kg/m3
324.07 K, 5037.9 kPa | 106.08 kg/m3
324.07 K, 5047.5 kPa | 106.41 kg/m3
324.07 K, 7549.5 kPa | 197.2 kg/m3
324.07 K, 7550.3 kPa | 197.25 kg/m3
324.07 K, 10068 kPa | 396.72 kg/m3
324.07 K, 10080 kPa | 398.55 kg/m3
324.07 K, 12568 kPa | 620.49 kg/m3 and 620.47 kg/m3
324.07 K, 15086 kPa | 705.24 kg/m3
324.07 K, 15087 kPa | 705.32 kg/m3
324.07 K, 17615 kPa | 754.18 kg/m3
324.07 K, 20140 kPa | 788.89 kg/m3 and 788.93 kg/m3
324.07 K, 22662 kPa | 816.06 kg/m3
324.07 K, 22664 kPa | 816.05 kg/m3
324.07 K, 25179 kPa | 838.47 kg/m3
324.07 K, 25185 kPa | 838.49 kg/m3
324.07 K, 27695 kPa | 857.63 kg/m3
324.07 K, 27705 kPa | 857.68 kg/m3
324.07 K, 30187 kPa | 874.31 kg/m3
324.07 K, 30220 kPa | 874.51 kg/m3
324.07 K, 32689 kPa | 889.28 kg/m3
324.07 K, 32729 kPa | 889.51 kg/m3
324.07 K, 35178 kPa | 902.77 kg/m3
324.07 K, 35212 kPa | 902.97 kg/m3
349.39 K, 2532.7 kPa | 41.96 kg/m3
349.39 K, 2537.9 kPa | 42.01 kg/m3
349.39 K, 5043.8 kPa | 91.74 kg/m3
349.39 K, 5046.4 kPa | 91.91 kg/m3
349.39 K, 7518.6 kPa | 153.18 kg/m3
349.39 K, 7555.2 kPa | 154.4 kg/m3
349.39 K, 10069 kPa | 236.57 kg/m3
349.39 K, 10075 kPa | 236.62 kg/m3
349.39 K, 12580 kPa | 346.19 kg/m3
349.39 K, 12586 kPa | 346.44 kg/m3
349.39 K, 15085 kPa | 467.39 kg/m3
349.39 K, 15089 kPa | 467.53 kg/m3
349.39 K, 17619 kPa | 564.01 kg/m3
349.39 K, 17622 kPa | 564.12 kg/m3
349.39 K, 20144 kPa | 630.6 kg/m3
349.39 K, 20146 kPa | 630.67 kg/m3
349.39 K, 22669 kPa | 678.62 kg/m3
349.39 K, 22671 kPa | 678.72 kg/m3
349.39 K, 25189 kPa | 715.52 kg/m3
349.39 K, 25190 kPa | 715.6 kg/m3
349.39 K, 27706 kPa | 745.39 kg/m3
349.39 K, 27707 kPa | 745.51 kg/m3
349.39 K, 30211 kPa | 770.4 kg/m3
349.39 K, 30216 kPa | 770.37 kg/m3
349.39 K, 32707 kPa | 791.84 kg/m3
349.39 K, 32708 kPa | 791.77 kg/m3
349.39 K, 35200 kPa | 810.62 kg/m3
349.39 K, 35202 kPa | 810.71 kg/m3
375.06 K, 2549.7 kPa | 38.37 kg/m3
375.06 K, 2555.7 kPa | 38.44 kg/m3
375.06 K, 5060.6 kPa | 81.6 kg/m3
375.06 K, 5068.6 kPa | 81.91 kg/m3
375.06 K, 7564.3 kPa | 131.73 kg/m3
375.06 K, 7579.7 kPa | 132.31 kg/m3
375.06 K, 10049 kPa | 189.67 kg/m3
375.06 K, 10080 kPa | 190.27 kg/m3
375.06 K, 12595 kPa | 258.2 kg/m3
375.06 K, 12612 kPa | 259 kg/m3
375.06 K, 15080 kPa | 333.08 kg/m3
375.06 K, 15093 kPa | 333.81 kg/m3
375.06 K, 17617 kPa | 411.4 kg/m3
375.06 K, 17623 kPa | 411.26 kg/m3
375.06 K, 20142 kPa | 482.1 kg/m3
375.06 K, 20148 kPa | 481.92 kg/m3
375.06 K, 22667 kPa | 541.64 kg/m3
375.06 K, 22672 kPa | 541.46 kg/m3
375.06 K, 25185 kPa | 590.31 kg/m3
375.06 K, 25191 kPa | 590.18 kg/m3
375.06 K, 27702 kPa | 630.33 kg/m3
375.06 K, 27708 kPa | 630.2 kg/m3
375.06 K, 30214 kPa | 663.73 kg/m3
375.06 K, 30222 kPa | 663.67 kg/m3
375.06 K, 32714 kPa | 692.09 kg/m3
375.06 K, 32726 kPa | 692.34 kg/m3
375.06 K, 35206 kPa | 716.75 kg/m3
375.06 K, 35223 kPa | 717.02 kg/m3
399.99 K, 2560.5 kPa | 35.13 kg/m3
399.99 K, 2564.5 kPa | 35.68 kg/m3
399.99 K, 5074.4 kPa | 74.46 kg/m3
399.99 K, 5079.5 kPa | 74.06 kg/m3
399.99 K, 7580.3 kPa | 116.91 kg/m3
399.99 K, 7584.9 kPa | 117.53 kg/m3
399.99 K, 10090 kPa | 164.56 kg/m3
399.99 K, 10112 kPa | 164.41 kg/m3
399.99 K, 12594 kPa | 215.96 kg/m3
399.99 K, 12608 kPa | 216.99 kg/m3
399.99 K, 15081 kPa | 271.09 kg/m3
399.99 K, 15090 kPa | 272.1 kg/m3
399.99 K, 17615 kPa | 329.58 kg/m3
399.99 K, 17617 kPa | 330.16 kg/m3
399.99 K, 20141 kPa | 387.34 kg/m3 and 386.76 kg/m3
399.99 K, 22663 kPa | 440.42 kg/m3
399.99 K, 22665 kPa | 441.02 kg/m3
399.99 K, 25183 kPa | 488.79 kg/m3
399.99 K, 25184 kPa | 489.39 kg/m3
399.99 K, 27700 kPa | 532.13 kg/m3
399.99 K, 27701 kPa | 531.53 kg/m3
399.99 K, 30211 kPa | 569.48 kg/m3
399.99 K, 30212 kPa | 568.87 kg/m3
399.99 K, 32703 kPa | 601.95 kg/m3
399.99 K, 32723 kPa | 601.61 kg/m3
399.99 K, 35199 kPa | 630.66 kg/m3
399.99 K, 35210 kPa | 630.23 kg/m3
